Experimental data: ChEMBL document CHEMBL4000175, “Biology-oriented drug synthesis (BIODS): In vitro β-glucuronidase inhibitory and in silico studies on 2-(2-methyl-5-nitro-1H-imidazol-1-yl)ethyl aryl carboxylate derivatives” (Eur J Med Chem, 2017)

What follows are molecules tested against T1, Beta-glucuronidase (Bos taurus) (UniProt A3KMY8) (assay: Potency index, ratio of D-saccharic acid 1,4-lactone IC50 to compound IC50 for bovine liver beta glucuronidase). Details: not given; call rule not given here.
T1 sequence (whole entry): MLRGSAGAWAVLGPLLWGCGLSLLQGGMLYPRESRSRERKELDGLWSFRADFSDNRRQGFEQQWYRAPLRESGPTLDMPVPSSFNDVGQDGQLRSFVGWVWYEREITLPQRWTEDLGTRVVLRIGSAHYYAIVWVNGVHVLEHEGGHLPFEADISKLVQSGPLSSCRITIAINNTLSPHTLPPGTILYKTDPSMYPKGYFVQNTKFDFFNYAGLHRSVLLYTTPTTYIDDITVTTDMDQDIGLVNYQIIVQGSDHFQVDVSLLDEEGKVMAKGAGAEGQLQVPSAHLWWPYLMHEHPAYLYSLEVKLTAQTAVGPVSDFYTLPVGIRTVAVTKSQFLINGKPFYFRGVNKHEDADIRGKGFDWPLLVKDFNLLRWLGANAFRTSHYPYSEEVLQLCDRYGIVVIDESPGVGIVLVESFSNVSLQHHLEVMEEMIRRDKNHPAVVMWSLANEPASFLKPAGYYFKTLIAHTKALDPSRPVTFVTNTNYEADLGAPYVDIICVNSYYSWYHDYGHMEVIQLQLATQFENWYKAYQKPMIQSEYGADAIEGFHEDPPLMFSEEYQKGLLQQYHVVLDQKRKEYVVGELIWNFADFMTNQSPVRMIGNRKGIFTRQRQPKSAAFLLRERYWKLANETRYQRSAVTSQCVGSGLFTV

Question: With `Cc1ncc([N+](=O)[O-])n1CCOC(=O)c1ccc2ncsc2c1` as the molecule, how does the Ratio IC50 read?
Answer: The Ratio IC50 was 6.

Question: How did the Ratio IC50 turn out when `Cc1ncc([N+](=O)[O-])n1CCOC(=O)c1cc2ccccc2[nH]1` was run?
Answer: Its Ratio IC50 is 24.

Question: `Cc1cc(C(=O)OCCn2c([N+](=O)[O-])cnc2C)ccc1[N+](=O)[O-]` was tested. Which Ratio IC50 did it give?
Answer: The Ratio IC50 was 7.

Question: With `Cc1ncc([N+](=O)[O-])n1CCOC(=O)c1ccc(Cl)c(Cl)c1` as the molecule, how does the Ratio IC50 read?
Answer: The Ratio IC50 was 15.

What follows are molecules tested against T2, Beta-glucuronidase (Bos taurus, UniProt A3KMY8) (assay: Inhibition of bovine liver beta glucuronidase using p-nitrophenyl-beta-D-glucuronide as substrate preincubated for 30 mins followed by substrate addition by spectrophotometric method). Details: not given.
T2 sequence (A3KMY8 whole entry): T1 sequence (whole entry)

Question: Which IC50 does the source give for `Cc1ncc([N+](=O)[O-])n1CCOC(=O)c1ccc2ccccc2c1` here?
Answer: Its IC50 is “Not Active”.

Question: Which IC50 does the source give for `Cc1ncc([N+](=O)[O-])n1CCOC(=O)c1cccc2ccccc12` here?
Answer: Its IC50 is “Not Active”.

Question: How did the IC50 turn out when `CCCCOc1ccc(C(=O)OCCn2c([N+](=O)[O-])cnc2C)cc1` was run?
Answer: The IC50 was “Not Active”.

Question: For `Cc1cccc(C(=O)OCCn2c([N+](=O)[O-])cnc2C)c1`, which IC50 is on record?
Answer: The IC50 was “Not Active”.

Same assay, conditions: read-out: IC50

Question: For `Cc1ccccc1C(=O)OCCn1c([N+](=O)[O-])cnc1C`, which IC50 is on record?
Answer: Its IC50 is 44.2 µM.

Question: With `Cc1ncc([N+](=O)[O-])n1CCOC(=O)c1cccc(F)c1` as the molecule, how does the IC50 read?
Answer: The IC50 was 8.1 µM.

Question: How did the IC50 turn out when `Cc1ncc([N+](=O)[O-])n1CCOC(=O)c1ccccc1Br` was run?
Answer: The IC50 was 48.5 µM.

Question: With `Cc1ncc([N+](=O)[O-])n1CCOC(=O)c1cc(Cl)ccc1Cl` as the molecule, how does the IC50 read?
Answer: The IC50 was 6.2 µM.

Question: With `Cc1ncc([N+](=O)[O-])n1CCOC(=O)c1ccc(F)cc1` as the molecule, how does the IC50 read?
Answer: Its IC50 is 12.4 µM.

Question: With `Cc1ncc([N+](=O)[O-])n1CCOC(=O)c1cccc([N+](=O)[O-])c1` as the molecule, how does the IC50 read?
Answer: The IC50 was 27.6 µM.

Question: For `Cc1ncc([N+](=O)[O-])n1CCOC(=O)c1cccnc1`, which IC50 is on record?
Answer: Its IC50 is 32.6 µM.

Question: How did the IC50 turn out when `COc1ccc(/C=C/C(=O)OCCn2c([N+](=O)[O-])cnc2C)cc1` was run?
Answer: The IC50 was 31.1 µM.

Question: For `COc1cc(OC)cc(C(=O)OCCn2c([N+](=O)[O-])cnc2C)c1`, which IC50 is on record?
Answer: The IC50 was 60.3 µM.

Question: For `Clc1ccc(-c2nc3ccccc3[nH]2)cc1Cl`, which IC50 is on record?
Answer: Its IC50 is 6.33 µM.

Question: For `Cc1ncc([N+](=O)[O-])n1CCOC(=O)c1ccc(F)cc1Br`, which IC50 is on record?
Answer: The IC50 was 6.3 µM.

Question: Which IC50 does the source give for `Cc1ccc(C(=O)OCCn2c([N+](=O)[O-])cnc2C)cc1` here?
Answer: Its IC50 is 35.5 µM.

Question: How did the IC50 turn out when `Cc1ncc([N+](=O)[O-])n1CCOC(=O)c1ccc2ncsc2c1` was run?
Answer: The IC50 was 8.4 µM.

Question: `Cc1ncc([N+](=O)[O-])n1CCOC(=O)c1cc2ccccc2[nH]1` was tested. Which IC50 did it give?
Answer: The IC50 was 2.1 µM.

Question: For `Cc1cc(C(=O)OCCn2c([N+](=O)[O-])cnc2C)ccc1[N+](=O)[O-]`, which IC50 is on record?
Answer: The IC50 was 7.3 µM.

Question: `Cc1ncc([N+](=O)[O-])n1CCOC(=O)c1ccccc1Cl` was tested. Which IC50 did it give?
Answer: Its IC50 is 19.3 µM.

Question: For `Cc1ncc([N+](=O)[O-])n1CCOC(=O)c1ccc([N+](=O)[O-])cc1`, which IC50 is on record?
Answer: Its IC50 is 8.9 µM.

Question: For `Cc1cc(C)cc(C(=O)OCCn2c([N+](=O)[O-])cnc2C)c1`, which IC50 is on record?
Answer: The IC50 was 24.2 µM.

Question: `Cc1ncc([N+](=O)[O-])n1CCOC(=O)c1ccc(Cl)c(Cl)c1` was tested. Which IC50 did it give?
Answer: Its IC50 is 3.6 µM.

Question: For `Cc1ncc([N+](=O)[O-])n1CCOC(=O)c1ccc(Br)cc1`, which IC50 is on record?
Answer: The IC50 was 42.6 µM.

Question: With `Cc1ncc([N+](=O)[O-])n1CCOC(=O)c1cccc(Cl)c1` as the molecule, how does the IC50 read?
Answer: The IC50 was 16.3 µM.

Question: Which IC50 does the source give for `COc1ccc(C(=O)OCCn2c([N+](=O)[O-])cnc2C)cc1` here?
Answer: Its IC50 is 60.2 µM.
